Here are results for 13 molecules from PubChem BioAssay (NCI).

Values joined by “and” are separate entries in the source; they are usually repeats but may differ in a detail not shown here. Equal entries are not always repeated.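 Protocol summary: plate cells (96-well), add compound at 5 concentrations, incubate 48 h, interpolate endpoints linearly. TGI is the concentration that stops growth completely.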 Where a SMILES comes first, the peptide text is derived from it. The star is where a group is joined. Cbz = O=C(OCc1ccccc1)*; Boc = CC(C)(C)OC(=O)*; OSu = O=C1CCC(=O)N1O*; Bn = c1ccc(C*)cc1

Test systems include BT-549 breast; HCT-15 colon; MDA-MB-231 breast; NCI-H522 lung; NCI/ADR-RES ovarian; RXF 393 renal; SNB-75 CNS; COLO 205 colon; HCC-2998 colon; SK-MEL-5 melanoma; SW-620 colon.
Assay in all cases: NCI-60 cell line screen, 48 h

As to `CCOC(=O)c1c(-c2ccccc2)c(C)cn1C`, the TGI with BT-549 breast was > 10 µM; with HCT-15 colon, > 10 µM; in the test on MDA-MB-231 breast, 0.772 µM; in the test on NCI-H522 lung it was > 10 µM; with NCI/ADR-RES ovarian, > 10 µM; in the test on RXF 393 renal it was > 10 µM. Moreover, the TGI with SNB-75 CNS was > 10 µM.

As to `O=C1/C(=C/c2ccc(Cl)cc2)Oc2ccccc21`, the TGI is > 100 µM in the test on BT-549 breast; > 100 µM with COLO 205 colon; > 100 µM in the test with HCC-2998 colon; > 100 µM with HCT-15 colon; > 100 µM with MDA-MB-231 breast; 34.5 µM with NCI-H522 lung. Besides, the TGI in the test with RXF 393 renal was 54.8 µM; in the test on SK-MEL-5 melanoma, 42.1 µM; in the test with SNB-75 CNS, 98.5 µM; with SW-620 colon, > 100 µM.

Take `CCC(=C/[C@H](C)C/C=C/C(C)=C/[C@@H](C)C(=O)[C@@H](C)[C@H](O)[C@@H](C)CC)/C=C/[C@H]1CC=CC(=O)O1`: the TGI in the test on BT-549 breast is 1.37 µM; in the test with COLO 205 colon it was 0.0428 µM; in the test on HCC-2998 colon, < 0.0012 µM; in the test with HCT-15 colon, 1.78 µM; in the test on NCI-H522 lung it was < 0.0012 µM; in the test with NCI/ADR-RES ovarian, 1.65 µM and 0.39 µM. Also, the TGI with RXF 393 renal was < 0.0012 µM; with SK-MEL-5 melanoma it was 0.0182 µM; in the test on SNB-75 CNS it was < 0.0012 µM; in the test with SW-620 colon, 2.09 µM and 12.1 µM.

`Clc1ccc(C2=NCON=C2c2ccc(Cl)cc2)cc1`: the TGI was found to be 41.7 µM with BT-549 breast; 29.9 µM in the test on COLO 205 colon; 32.7 µM in the test with HCC-2998 colon; 50.6 µM with HCT-15 colon; 43.7 µM in the test on MDA-MB-231 breast; 71.2 µM in the test on NCI/ADR-RES ovarian. In addition, the TGI in the test on RXF 393 renal amounted to 44.8 µM; in the test on SK-MEL-5 melanoma, 30.3 µM; with SNB-75 CNS, 74.2 µM; in the test with SW-620 colon it was 50.1 µM.

`COc1cc2c(cc1OC)C(=O)N(c1ccc(OCCN3CCCC3)cc1)C2=O`: the TGI with BT-549 breast, with COLO 205 colon, in the test with HCC-2998 colon, in the test with HCT-15 colon, with MDA-MB-231 breast and in the test with NCI-H522 lung was > 100 µM in each case. Also, the TGI with NCI/ADR-RES ovarian, with RXF 393 renal, in the test on SK-MEL-5 melanoma and in the test with SW-620 colon was > 100 µM each time.

Consider `CC(C)(C)OC(=O)NC(Cc1ccc(OCc2ccccc2)cc1)C(=O)NC(CCCCNC(=O)OCc1ccccc1)C(=O)NC(CCCCNC(=O)OCc1ccccc1)C(=O)ON1C(=O)CCC1=O` (stereo not drawn) (Boc-Tyr(Bn)-Lys(Cbz)-Lys(Cbz)-OSu; configuration not given here), for which the TGI in the test with BT-549 breast is 33.2 µM; with COLO 205 colon it was > 100 µM; with HCT-15 colon, > 100 µM; in the test on NCI-H522 lung it was 39.7 µM; in the test with NCI/ADR-RES ovarian it was > 100 µM; in the test on RXF 393 renal, > 100 µM. Further, the TGI in the test on SK-MEL-5 melanoma and in the test with SNB-75 CNS was > 100 µM in each case.

In the case of `NC(N)=NCCCC(NC(=O)c1c2ccccc2nc2ccccc12)C(=O)O` (stereo not drawn), the TGI with BT-549 breast, in the test on COLO 205 colon, in the test on HCC-2998 colon, in the test on HCT-15 colon, in the test on MDA-MB-231 breast and in the test with NCI-H522 lung was > 100 µM each time. The TGI with NCI/ADR-RES ovarian, in the test with SK-MEL-5 melanoma, in the test on SNB-75 CNS and with SW-620 colon was > 100 µM in each case.

`Cc1ccc2nc(C(=O)O)c(=O)[nH]c2c1`: the TGI in the test with BT-549 breast, in the test on COLO 205 colon, in the test on HCC-2998 colon, with HCT-15 colon, in the test on MDA-MB-231 breast and with NCI-H522 lung was > 100 µM each time. Also, the TGI with NCI/ADR-RES ovarian, in the test on RXF 393 renal, with SK-MEL-5 melanoma and with SW-620 colon was > 100 µM throughout.

On to `COc1ccc(/C=N/Nc2nnc3c(n2)c2ccccc2c2nn(-c4ccccc4Cl)nc23)cc1`, for which the TGI with BT-549 breast, in the test with COLO 205 colon, in the test on HCT-15 colon, with MDA-MB-231 breast, in the test with NCI-H522 lung and in the test on NCI/ADR-RES ovarian was > 100 µM each time. Further, the TGI in the test on RXF 393 renal, with SK-MEL-5 melanoma, with SNB-75 CNS and in the test on SW-620 colon was > 100 µM throughout.

As to `COc1cc2c(cc1OC)C(=O)/C(=C/c1ccc(N(C)C)cc1)CC2`, the TGI in the test on BT-549 breast, with COLO 205 colon, in the test on HCC-2998 colon, with HCT-15 colon, in the test on MDA-MB-231 breast and in the test on NCI/ADR-RES ovarian was > 10 µM each time. In addition, the TGI with RXF 393 renal, in the test on SK-MEL-5 melanoma and with SW-620 colon was > 10 µM in each case.

Regarding `CSc1nc[nH]c1C(N)=S`, the TGI in the test with BT-549 breast, with COLO 205 colon, with MDA-MB-231 breast, in the test with NCI-H522 lung, in the test on NCI/ADR-RES ovarian and in the test on RXF 393 renal was > 100 µM throughout. Also, the TGI with SK-MEL-5 melanoma, in the test with SNB-75 CNS and in the test with SW-620 colon was > 100 µM in each case.

Regarding `COc1cccc(N=NN2CCCC2)c1`, the TGI in the test with BT-549 breast, with COLO 205 colon, in the test on HCT-15 colon, in the test with MDA-MB-231 breast, in the test on NCI-H522 lung and in the test with NCI/ADR-RES ovarian was > 100 µM in each case. Further, the TGI in the test on RXF 393 renal, with SK-MEL-5 melanoma, in the test with SNB-75 CNS and with SW-620 colon was > 100 µM each time.

As to `CC(CC=O)Nc1nn2c(=O)c3ccccc3nc2s1` (stereo not drawn), the TGI in the test with BT-549 breast, in the test with COLO 205 colon, in the test with HCC-2998 colon, with HCT-15 colon, in the test on NCI-H522 lung and in the test with NCI/ADR-RES ovarian was > 100 µM throughout. In addition, the TGI in the test on RXF 393 renal, in the test with SK-MEL-5 melanoma, in the test with SNB-75 CNS and in the test with SW-620 colon was > 100 µM in each case.
